# Assay results taken from patent US8324246B2, “Indol carboxylic acid bispyridyl carboxamide derivatives, pharmaceutically acceptable salt thereof, preparation method and composition containing the same as an active ingredient” (Korea Research Institute of Chemical Technology, priority 2008, dated 2012).
# Where two headings read alike, the source gives them in different places.
# Experiments:
# [1] = target: T1, human gene recombinant 5-HT2c receptor expressed in CHO-K1 cell (Homo sapiens, UniProt P28335); assay: Binding affinity to the serotonin 5-HT2c receptor ([3H]mesulergine)
# T1 construct: purchased Euroscreen, Belgium; host or cells: CHO-K1
# T1 sequence (P28335 33-458): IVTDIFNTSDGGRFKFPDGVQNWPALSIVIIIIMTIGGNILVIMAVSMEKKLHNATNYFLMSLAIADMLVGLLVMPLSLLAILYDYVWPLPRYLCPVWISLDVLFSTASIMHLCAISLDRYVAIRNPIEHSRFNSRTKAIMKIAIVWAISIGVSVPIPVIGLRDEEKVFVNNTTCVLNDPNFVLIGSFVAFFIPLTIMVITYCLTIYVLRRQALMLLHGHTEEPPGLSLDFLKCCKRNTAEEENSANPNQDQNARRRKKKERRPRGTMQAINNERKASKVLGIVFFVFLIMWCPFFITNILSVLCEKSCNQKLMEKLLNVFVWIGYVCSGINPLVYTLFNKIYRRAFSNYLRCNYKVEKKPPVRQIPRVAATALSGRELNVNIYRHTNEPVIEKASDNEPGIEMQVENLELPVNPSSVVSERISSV
# Procedure: As a receptor, a human gene recombinant 5-HT2c receptor expressed in CHO—K1 cell was purchased from Euroscreen, Belgium and used in the experiment, and as a radioactive isotope, [3H]mesulergine (Amersham Biosciences, UK).
# A final volume of 0.25 ml reaction mixture was prepared by adding 50 mM Tris-HCl buffer (pH 7.7) containing one of the compounds in Examples 1-29 or Comparative Examples 1-2, 1 nM of [3H]mesulergine, 5-HT2c receptor membranes (4 D/well), 0.1% ascorbic acid and 10 µM pargyline, and incubated at 37° C. for 30 minutes. After incubation, the reaction was terminated by the rapid filtration using an Inotech harvester (Inotech) through a Wallace GF/C glass fiber filter (Wallac, Finland) which was presoaked in 1% BSA, and then washed with ice-cold 50 mM Tris-HCl buffer. The filter was covered with MeltiLex, sealed in a sample bag followed by drying in the oven, and counted by MicroBeta Plus (Wallac). Non-specific binding was determined in the presence of […] Mianserin. Three repeating experiments were carried out with 7-8 concentrations of the compound in Examples 1-29 or the compound in comparative examples 1-2, run in duplicate tubes, and isotherms from the three assays were calculated by a nonlinear regression analysis (GraphPad Prism Program, San Diego, USA) to yield IC50 values.
# 5-HT6 = 5-HT6 (Homo sapiens, UniProt P50406); assay: Receptor selectivity binding, 5-HT6; settings: Table 3
# Procedure: (§1) For their high binding affinities for 5-HT2c, compounds in Examples 14 to 18, 20, and 22 or in Comparative Example 1 were used for the experiment with reaction mixtures. Except that CNS receptors such as 5-HT1a, 5-HT2a, 5-HT7, D2, D3 or D4 other than 5-HT2c were used as a receptor, IC50 values (nM) were measured in the same manner as in Experimental Example 1.
# D2 = D2 (Homo sapiens, UniProt P14416); assay: Receptor selectivity binding, D2; settings: Table 3
# Procedure: as §1
# 5-HT7 = 5-HT7 (Homo sapiens, UniProt P34969); assay: Receptor selectivity binding, 5-HT7; settings: Table 3
# Procedure: as §1
# D4 = target: T2, D4 (Homo sapiens, UniProt P21917); assay: Receptor selectivity binding, D4; settings: Table 3
# T2 sequence (P21917 1-419): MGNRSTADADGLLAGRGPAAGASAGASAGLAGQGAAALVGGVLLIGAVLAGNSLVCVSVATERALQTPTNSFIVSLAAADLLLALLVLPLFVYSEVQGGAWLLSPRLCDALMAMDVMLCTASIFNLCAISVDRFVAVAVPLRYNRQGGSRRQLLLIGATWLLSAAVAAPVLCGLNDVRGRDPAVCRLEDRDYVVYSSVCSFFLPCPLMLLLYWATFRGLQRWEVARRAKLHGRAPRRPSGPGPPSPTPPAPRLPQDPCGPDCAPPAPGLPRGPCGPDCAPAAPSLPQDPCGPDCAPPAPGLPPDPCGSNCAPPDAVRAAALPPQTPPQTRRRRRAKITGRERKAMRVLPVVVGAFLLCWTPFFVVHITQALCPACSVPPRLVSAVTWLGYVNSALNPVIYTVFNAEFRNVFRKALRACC
# Procedure: as §1
# D3 = D3 (Homo sapiens, UniProt P35462); assay: Receptor selectivity binding, D3; settings: Table 3
# Procedure: as §1
# 5-HT2a = 5-HT2a (Homo sapiens, UniProt P28223); assay: Receptor selectivity binding, 5-HT2a; settings: Table 3
# Procedure: as §1
# 5-HT1a = target: T3, 5-HT1a (Homo sapiens, UniProt P08908); assay: Receptor selectivity binding, 5-HT1a; settings: Table 3
# T3 sequence (P08908 1-422): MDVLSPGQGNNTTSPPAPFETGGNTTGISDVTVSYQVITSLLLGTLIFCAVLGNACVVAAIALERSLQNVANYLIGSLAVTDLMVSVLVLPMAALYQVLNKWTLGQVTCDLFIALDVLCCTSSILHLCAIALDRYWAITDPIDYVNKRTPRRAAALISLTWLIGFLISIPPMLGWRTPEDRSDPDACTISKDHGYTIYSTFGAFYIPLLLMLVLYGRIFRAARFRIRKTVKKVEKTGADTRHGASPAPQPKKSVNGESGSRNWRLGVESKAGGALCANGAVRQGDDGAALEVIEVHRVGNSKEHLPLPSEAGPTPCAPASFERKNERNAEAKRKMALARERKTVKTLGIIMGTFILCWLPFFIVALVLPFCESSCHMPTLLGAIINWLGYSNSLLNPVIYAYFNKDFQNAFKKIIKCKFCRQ
# Procedure: as §1
# [2] = [3H]mesulergine 1 nM, 37° C. 30 minutes, Table 2, read-out: IC50
# Sequence of D2 (P14416 whole entry): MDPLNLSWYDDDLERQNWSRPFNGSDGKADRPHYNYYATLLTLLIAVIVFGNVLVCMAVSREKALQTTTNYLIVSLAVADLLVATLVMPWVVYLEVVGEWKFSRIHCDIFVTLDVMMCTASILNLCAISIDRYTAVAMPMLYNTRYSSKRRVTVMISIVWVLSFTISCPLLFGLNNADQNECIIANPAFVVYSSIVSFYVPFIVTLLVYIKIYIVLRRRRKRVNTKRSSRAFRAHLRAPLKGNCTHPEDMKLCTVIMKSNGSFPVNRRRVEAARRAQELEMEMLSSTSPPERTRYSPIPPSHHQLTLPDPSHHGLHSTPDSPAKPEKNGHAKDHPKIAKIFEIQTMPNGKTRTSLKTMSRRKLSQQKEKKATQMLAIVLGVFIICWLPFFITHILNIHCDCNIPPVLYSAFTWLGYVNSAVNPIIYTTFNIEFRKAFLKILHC
# Sequence of D3 (P35462 whole entry): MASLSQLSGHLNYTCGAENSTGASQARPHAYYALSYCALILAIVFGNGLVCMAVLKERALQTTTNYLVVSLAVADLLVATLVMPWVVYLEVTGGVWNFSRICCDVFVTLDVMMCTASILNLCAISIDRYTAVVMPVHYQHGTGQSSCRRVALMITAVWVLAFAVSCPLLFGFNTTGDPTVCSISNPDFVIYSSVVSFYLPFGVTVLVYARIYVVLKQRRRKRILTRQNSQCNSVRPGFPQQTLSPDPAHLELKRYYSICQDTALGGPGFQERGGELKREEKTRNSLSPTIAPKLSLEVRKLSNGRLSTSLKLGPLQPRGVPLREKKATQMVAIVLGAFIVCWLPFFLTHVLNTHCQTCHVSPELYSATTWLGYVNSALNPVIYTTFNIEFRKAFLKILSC
# Sequence of 5-HT6 (P50406 whole entry, species assumed): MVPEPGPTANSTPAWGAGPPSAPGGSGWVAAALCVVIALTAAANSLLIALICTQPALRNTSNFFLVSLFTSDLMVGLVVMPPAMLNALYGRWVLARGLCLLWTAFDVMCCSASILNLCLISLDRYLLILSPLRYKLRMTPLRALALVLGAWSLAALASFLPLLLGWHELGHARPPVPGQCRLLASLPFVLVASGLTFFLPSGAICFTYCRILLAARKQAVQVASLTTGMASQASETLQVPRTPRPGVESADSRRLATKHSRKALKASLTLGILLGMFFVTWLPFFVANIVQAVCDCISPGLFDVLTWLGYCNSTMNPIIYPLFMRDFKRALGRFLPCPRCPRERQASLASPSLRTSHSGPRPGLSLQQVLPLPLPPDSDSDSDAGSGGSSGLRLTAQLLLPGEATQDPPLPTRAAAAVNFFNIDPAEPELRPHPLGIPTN
# Sequence of 5-HT2a (P28223 whole entry, species assumed): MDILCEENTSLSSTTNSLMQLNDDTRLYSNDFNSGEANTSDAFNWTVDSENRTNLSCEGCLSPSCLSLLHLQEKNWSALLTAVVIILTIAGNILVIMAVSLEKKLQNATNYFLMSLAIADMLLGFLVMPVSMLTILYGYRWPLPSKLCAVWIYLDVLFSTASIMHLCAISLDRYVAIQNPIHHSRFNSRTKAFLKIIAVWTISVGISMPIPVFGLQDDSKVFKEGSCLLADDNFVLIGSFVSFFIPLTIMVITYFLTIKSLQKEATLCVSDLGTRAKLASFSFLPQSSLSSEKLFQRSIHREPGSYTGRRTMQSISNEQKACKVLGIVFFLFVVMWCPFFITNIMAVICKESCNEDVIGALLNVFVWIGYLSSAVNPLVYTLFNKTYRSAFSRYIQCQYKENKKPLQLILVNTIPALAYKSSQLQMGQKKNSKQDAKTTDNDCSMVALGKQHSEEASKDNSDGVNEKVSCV
# Sequence of 5-HT7 (P34969 whole entry, species assumed): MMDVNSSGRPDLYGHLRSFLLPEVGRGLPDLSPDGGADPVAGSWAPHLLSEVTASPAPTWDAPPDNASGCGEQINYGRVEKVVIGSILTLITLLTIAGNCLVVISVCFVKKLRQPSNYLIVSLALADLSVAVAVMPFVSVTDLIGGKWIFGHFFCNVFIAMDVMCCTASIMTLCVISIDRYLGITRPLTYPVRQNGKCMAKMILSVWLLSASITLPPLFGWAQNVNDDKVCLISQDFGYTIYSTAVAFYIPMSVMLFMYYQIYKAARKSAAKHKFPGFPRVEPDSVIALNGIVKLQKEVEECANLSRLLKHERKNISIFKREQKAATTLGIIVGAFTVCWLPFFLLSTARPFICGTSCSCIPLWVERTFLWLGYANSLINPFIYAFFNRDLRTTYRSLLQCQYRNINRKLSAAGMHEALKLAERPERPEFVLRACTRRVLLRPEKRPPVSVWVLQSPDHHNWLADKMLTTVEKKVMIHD
Molecule,"IC50 [1, 2] [nM]",melting point [°C],also measured
"O=C(Nc1ccc(-c2cccnc2)cc1)c1c[nH]c2ccccc12 [Example 27, 1H-indole-3-carboxylic acid (4-pyridine-3-yl-phenyl)-amide]",214,–,–
"COc1nc(OC)nc(Oc2ccc(NC(=O)c3c[nH]c4ccccc34)cc2)n1 [Example 29, 1H-indole-3-carboxylic acid[4-(4,6-dimethoxy-[1,3,5]triazine-2-ylxoxy)-phenyl]-amide]",> 10000,–,–
"Cc1ccc2c(C(=O)Nc3ccc(Oc4cccnc4C)nc3)c[nH]c2c1 [Example 16, 6-methyl-1H-indole-3-carboxylic acid[6-(2-methyl-pyridine-3-yloxy)-pyridine-3-yl]-amide]",1.9,–,"IC50 (5-HT6): > 10 µM; IC50 ([1]; Table 3, read-out: IC50 5-HT2c): 1.9 nM; IC50 (D2): > 10 µM; IC50 (5-HT7): > 10 µM; IC50 (D4): > 10 µM; IC50 (D3): > 10 µM; IC50 (5-HT2a): > 10 µM; IC50 (5-HT1a): > 10 µM"
"Cc1cc2c(cc1C(F)(F)F)N(C(=O)Nc1ccc(OCc3ccccn3)nc1)CC2 [Comparative Example 2, SB-247853]",1.3,220 to 222,–
"O=C(Nc1ccc(OCc2ccccn2)nc1)c1c[nH]c2ccccc12 [Example 20, 1H-indole-3-carboxylic acid[6-(pyridine-2-ylmethoxy)-pyridine-3-yl]-amide]",5.9,–,"IC50 (5-HT6): > 1 µM; IC50 ([1]; Table 3, read-out: IC50 5-HT2c): 5.9 nM; IC50 (D2): > 10 µM; IC50 (5-HT7): > 10 µM; IC50 (D4): > 10 µM; IC50 (D3): > 10 µM; IC50 (5-HT2a): > 10 µM; IC50 (5-HT1a): > 10 µM"
"Cc1ccc(Oc2ccc(NC(=O)c3c[nH]c4ccccc34)cn2)cn1 [Example 21, 1H-indole-3-carboxylic acid[6-(6-methyl-pyridine-3-yloxy)-pyridine-3-yl]-amide]",2250,–,–
"Cc1ccc2c(C(=O)Nc3ccc(Oc4cccnc4Cl)nc3)c[nH]c2c1 [Example 28, 6-methyl-1H-indole-3-carboxylic acid[6-(2-chloro-pyridine-3-yloxy)-pyridine-3-yl]-amide]",7,–,–
"O=C(Nc1cccnc1)c1c[nH]c2ccccc12 [Example 26, 1H-indole-3-carboxylic acid pyridine-3-ylamide]",> 1000,–,–
"Cc1ncccc1Oc1ccc(N(C)C(=O)c2cn(C)c3ccccc23)cn1 [Example 13, 1-methyl-1H-indole-3-carboxylic acid methyl-[6-(2-methyl-pyridine-3-yloxy)-pyridine-3-yl]-amide]",6370,–,–
"O=C(Nc1ccc(Oc2ccccc2)nc1)c1c[nH]c2ccccc12 [Example 25, 1H-indole-3-carboxylic acid(6-phenoxy-pyridine-3-yl)-amide]",542,–,–
"O=C(Nc1ccc(Oc2cncnc2)nc1)c1c[nH]c2ccccc12 [Example 19, 1H-indole-3-carboxylic acid[6-(pyrimidin-5-yloxy)-pyridine-3-yl]-amide]",50,–,–
"Cc1ncccc1Oc1ccc(NC(=O)c2nc3ccccc3[nH]2)cn1 [Example 7, 1H-benzoimidazole-2-carboxylic acid[6-(2-methyl-pyridine-3-yloxy)-pyridine-3-yl]-amide]",> 10000,191 to 193,–
1H-indole-2-carboxylic acid[6-(2-methyl-pyridine-3-yloxy)-pyridine-3-yl]-amide [Example 5],59,–,–
"O=C(Nc1ccc(Oc2cccnc2)nc1)c1c[nH]c2ccccc12 [Example 24, 1H-indole-3-carboxylic acid[6-(pyridine-3-yloxy)-pyridine-3-yl]-amide]",1.6,–,–

# The next lines start with results.
"IC50 [1, 2] [nM]",melting point [°C],Molecule,also measured
67,108 to 110,"Cc1ncccc1Oc1ccc(NC(=O)c2c[nH]c3ccccc23)cn1 [Example 6, 1H-indole-3-carboxylic acid[6-(2-methyl-pyridine-3-yloxy)-pyridine-3-yl]-amide]",–
572,93 to 95,"Cc1ncccc1Oc1ccc(NS(=O)(=O)c2csc3ccccc23)cn1 [Example 2, benzo[b]thiophene-3-sulfonic acid[6-(2-methyl-pyridine-3-yloxy)-pyridine-3-yl]-amide]",–
167,52 to 55,"Cc1ncccc1Oc1ccc(NC(=O)c2coc3ccccc23)cn1 [Example 3, benzofuran-3-carboxylic acid[6-(2-methyl-pyridine-3-yloxy)-pyridine-3-yl]-amide]",–
106,–,"O=C(Nc1ccc(Oc2cccnc2Br)nc1)c1c[nH]c2ccccc12 [Example 23, 1H-indole-3-carboxylic acid[6-(2-bromo-pyridine-3-yloxy)-pyridine-3-yl]-amide]",–
50,81 to 83,"Cc1ncccc1Oc1ccc(NC(=O)c2csc3ccccc23)cn1 [Example 4, benzo[b]thiophene-3-carboxylic acid[6-(2-methyl-pyridine-3-yloxy)-pyridine-3-yl]-amide]",–
23,–,Cc1ncccc1Oc1ccc(NC(=S)c2c[nH]c3ccccc23)cn1 [Example 10],–
302,156 to 158,"Cc1ncccc1Oc1ccc(NC(=O)c2ccc3ccccc3c2)cn1 [Example 8, naphthalene-2-carboxylic acid[6-(2-methyl-pyridine-3-yloxy)-pyridine-3-yl]-amide]",–
474,–,"Cc1ncccc1Oc1ccc(NC(=O)c2cn(C)c3ccccc23)cn1 [Example 11, 1-methyl-1H-indole-3-carboxylid acid[6-(2-methyl-pyridine-3-yloxy)-pyridine-3-yl]-amide]",–
321,128 to 129,"Cc1ncccc1Oc1ccc(NS(=O)(=O)c2coc3ccccc23)cn1 [Example 1, benzofuran-3-sulfonic acid[6-(2-methyl-pyridine-3-yloxy)-pyridine-3-yl]-amide]",–
9440,–,"Cc1ncccc1Oc1ccc(N(C)C(=O)c2c[nH]c3ccccc23)cn1 [Example 12, 1H-indole-3-carboxylic acid methyl-[6-(2-methyl-pyridine-3-yloxy)-pyridine-3-yl]-amide]",–
> 10000,–,"Cc1ncccc1Oc1ccc(NCc2c[nH]c3ccccc23)cn1 [Example 9, (1H-indole-3-ylmethyl)-[6-(2-methyl-pyridine-3-yloxy)-pyridine-3-yl]-amine]",–
